Results from US8871756B2 (Hoffmann-La Roche Inc., priority 2011, dated 2014).

The compounds below were run on RSV Long strain (assay: Viral cytopathic effect (CPE) assay, anti-RSV activity). Details: human respiratory syncytial virus, 144 h, RSV Long strain (ATCC); cell viability after 6 days, Cell Counting kit-8.
Format: cell-based, Respiratory Syncytial Virus
Summary of the method: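 EC50 was derived from CCK-8 viability at 450/630 nm measured 6 days post-infection. Infection used enough RSV Long strain for approximately 80–90% cytopathic effect, in the presence of half-log serially diluted compound. Cells were plated the day before at 6×10^3 per well in DMEM/10% FBS.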

Compound | EC50 [µM]
Cc1ccc2nc(N3CCS(=O)(=O)c4ccccc4C3)cc(N3C[C@H](O)[C@@H](O)C3)c2c1 [Example 3-34, (3S,4S)-1-[2-(1,1-Dioxido-2,3-dihydro-1,4-benzothiazepin-4(5H)-yl)-6-methylquinolin-4-yl]pyrrolidine-3,4-diol] | 0.085
Cc1ccc2nc(N3CCS(=O)(=O)c4ccccc4C3)cc(OC3CCNC3)c2c1 (centres unmarked) [Example 98-1, 4-[6-Methyl-4-(pyrrolidin-3-yloxy)quinolin-2-yl]-2,3,4,5-tetrahydro-1,4-benzothiazepine 1,1-dioxide] | 0.778
Cc1ccc2nc(N3CCS(=O)(=O)c4ccccc4C3)cc(NCC3(N)CC3)c2c1 [Example 21-5, (1-Amino-cyclopropylmethyl)-[2-(5,5-dioxo-5,6,7,9-tetrahydro-5λ^6-thia-8-aza-benzocyclohepten-8-yl)-6-methyl-quinolin-4-yl]-amine] | 0.007
Cc1ccc2nc(N3CCS(=O)(=O)c4ccccc4C3)cc(NCC3(CN)COC3)c2c1 [Example 3-50, N-{[3-(Aminomethyl)oxetan-3-yl]methyl}-2-(1,1-dioxido-2,3-dihydro-1,4-benzothiazepin-4(5H)-yl)-6-methylquinolin-4-amine] | 0.0004
CNCCNc1cc(N2CCS(=O)(=O)c3ccccc3C2)nc2ccc(Cl)cc12 [Example 9-32, N-[6-Chloro-2-(1,1-dioxido-2,3-dihydro-1,4-benzothiazepin-4(5H)-yl)quinolin-4-yl]-N′-methylethane-1,2-diamine] | 0.063
Cc1ccc2nc(N3CCS(=O)(=O)c4ccccc4C3)cc(NC(=O)c3cnccn3)c2c1 [Example 47-8, N-[2-(1,1-Dioxido-2,3-dihydro-1,4-benzothiazepin-4(5H)-yl)-6-methylquinolin-4-yl]pyrazine-2-carboxamide] | 0.432
CCNc1cc(N2CCS(=O)(=O)c3ccccc3C2)nc2ccc(Cl)cc12 [Example 9-30, 6-Chloro-2-(1,1-dioxido-2,3-dihydro-1,4-benzothiazepin-4(5H)-yl)-N-ethylquinolin-4-amine] | 8.59
CO/N=C1\CCN(c2cc(NCC3(N)COC3)c3cc(C)ccc3n2)Cc2ccccc21 [Example 112-2, N-[(3-Aminooxetan-3-yl)methyl]-2-[(5E)-5-(methoxyimino)-1,3,4,5-tetrahydro-2H-2-benzazepin-2-yl]-6-methylquinolin-4-amine] | 0.092
NCC1(CNc2nc(N3CC[S+]([O-])c4ccccc4C3)nc3ccc(C(=O)O)cc23)COC1 (centres unmarked) [Example 108-1, 4-({[3-(Aminomethyl)oxetan-3-yl]methyl}amino)-2-(1-oxido-2,3-dihydro-1,4-benzothiazepin-4(5H)-yl)quinazoline-6-carboxylic acid] | 0.488
Cc1ccc2nc(N3CCC(F)(F)c4ccccc4C3)cc(NC3CCNC3)c2c1 (centres unmarked) [Example 110-10] | 0.099
NCCNc1cc(N2CCS(=O)(=O)c3ccccc3C2)nc2ccccc12 [Example 9-15, N-[2-(1,1-Dioxido-2,3-dihydro-1,4-benzothiazepin-4(5H)-yl)quinolin-4-yl]ethane-1,2-diamine] | 0.012
Cc1ccc2nc(N3CCS(=O)(=O)c4ccccc4C3)cc(NCCSCCN)c2c1 [Example 8-7, N-{2-[(2-Aminoethyl)sulfanyl]ethyl}-2-(1,1-dioxido-2,3-dihydro-1,4-benzothiazepin-4(5H)-yl)-6-methylquinolin-4-amine] | 0.322
Cc1ccc2nc(N3CCS(=O)(=O)c4ccccc4C3)cc(CCCN)c2c1 [Example 96, 3-[2-(1,1-Dioxido-2,3-dihydro-1,4-benzothiazepin-4(5H)-yl)-6-methylquinolin-4-yl]propan-1-amine] | 2.83
Cc1ccc2nc(N3CC[S+]([O-])c4ccccc4C3)nc(NCC(F)(F)CN)c2c1 (centres unmarked) [Example 56-2, 2,2-Difluoro-N-[6-methyl-2-(1-oxido-2,3-dihydro-1,4-benzothiazepin-4(5H)-yl)quinazolin-4-yl]propane-1,3-diamine] | 0.023
